According to patent US9169254B2, “Spiroimidazolone derivative” (Chugai Seiyaku Kabushiki Kaisha, priority 2009, dated 2015):

Biological target: T1, human PTH1 receptor (Homo sapiens, UniProt Q03431)
T1 sequence (Q03431 27-593): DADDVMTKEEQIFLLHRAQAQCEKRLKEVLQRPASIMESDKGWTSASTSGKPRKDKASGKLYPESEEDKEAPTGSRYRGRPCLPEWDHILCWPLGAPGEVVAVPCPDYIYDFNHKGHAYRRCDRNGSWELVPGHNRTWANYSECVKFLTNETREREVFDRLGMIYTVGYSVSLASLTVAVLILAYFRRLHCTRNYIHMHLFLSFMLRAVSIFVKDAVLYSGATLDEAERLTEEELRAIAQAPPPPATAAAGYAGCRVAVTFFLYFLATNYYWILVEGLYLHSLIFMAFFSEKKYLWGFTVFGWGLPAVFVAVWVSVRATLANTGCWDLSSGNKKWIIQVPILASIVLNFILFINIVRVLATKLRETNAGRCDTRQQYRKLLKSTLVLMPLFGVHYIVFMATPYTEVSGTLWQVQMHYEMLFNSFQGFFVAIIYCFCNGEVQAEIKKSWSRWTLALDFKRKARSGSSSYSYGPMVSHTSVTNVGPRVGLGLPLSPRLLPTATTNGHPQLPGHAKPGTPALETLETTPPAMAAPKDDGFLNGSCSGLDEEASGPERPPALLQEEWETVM
Experiment: In vitro cAMP signal activity in HKRK-B7 cells (LLC-PK1 cells overexpressing the human PTH1 receptor)
Type: cell-based
Details: HKRK-B7 cells; compound at 1×10^−3 M; cAMP produced as percentage of that produced by hPTH(1-34) at 100 nM

In the case of `O=C1NC(C2CCCCC2)=NC12CCN(S(=O)(=O)CCc1ccc(CCO)cc1)CC2` [Compound 280, 2-cyclohexyl-8-{2-[4-(2-hydroxy-ethyl)-phenyl]-ethanesulfonyl}-1,3,8-triaza-spiro[4.5]dec-1-en-4-one], the “cAMP production activity (%)” value is reported as 57%.

In the case of `[2H]C([2H])([2H])C([2H])([2H])Oc1ccc(C2=NC3(CCN(S(=O)(=O)/C=C/c4c(C)cc(C(=O)N5CCC(O)(CF)CC5)cc4C)CC3)C(=O)N2)cc1C(F)(F)F` [Compound 1253, 2-(4-[1,1,2,2,2-^2H5]ethoxy-3-trifluoromethyl-phenyl)-8-{(E)-2-[4-(4-fluoromethyl-4-hydroxy-piperidine-1-carbonyl)-2,6-dimethyl-phenyl]-ethenesulfonyl}-1,3,8-triaza-spiro[4.5]dec-1-en-4-one], the “cAMP production activity (%)” value is reported as 81%.

With `Cc1cc(N(C2CCNCC2)S(C)(=O)=O)cc(C)c1/C=C/S(=O)(=O)N1CCC2(CC1)N=C(c1cccc(OC(F)(F)F)c1)NC2=O` [Compound 689, N-(3,5-Dimethyl-4-{(E)-2-[4-oxo-2-(3-trifluoromethoxy-phenyl)-1,3,8-triaza-spiro[4.5]dec-1-ene-8-sulfonyl]-vinyl}-phenyl)-N-piperidin-4-yl-methanesulfonamide] the “cAMP production activity (%)” value was 27%.

With `O=C1NC(C2CCCCC2)=NC12CCN(S(=O)(=O)/C=C/c1cccc3c1ccn3CCN1CCOCC1)CC2` [Compound 192, 2-cyclohexyl-8-{(E)-2-[1-(2-morpholin-4-yl-ethyl)-1H-indol-4-yl]-ethenesulfonyl}-1,3,8-triaza-spiro[4.5]dec-1-en-4-one] the “cAMP production activity (%)” value was 52%.

With `O=C1NC(C2CCCCC2)=NC12CCN(S(=O)(=O)/C=C/c1cccc(F)c1F)CC2` [Compound 184, 2-cyclohexyl-8-[(E)-2-(2,3-difluoro-phenyl)-ethenesulfonyl]-1,3,8-triaza-spiro[4.5]dec-1-en-4-one] the “cAMP production activity (%)” value was 37%.

With `CC(=O)N(C)c1cc(C)c(CCS(=O)(=O)N2CCC3(CC2)N=C(C2CCC(CCC(F)(F)F)CC2)NC3=O)c(C)c1` (centres unmarked) [Compound 759, N-[3,5-dimethyl-4-(2-{4-oxo-2-[4-(3,3,3-trifluoro-propyl)-cyclohexyl]-1,3,8-triaza-spiro[4.5]dec-1-ene-8-sulfonyl}-ethyl)-phenyl]-N-methyl-acetamide] the “cAMP production activity (%)” value was 79%.

With `Cc1cc(C(=O)N2CC(O)C2)ccc1CCS(=O)(=O)N1CCC2(CC1)N=C(c1cccc(C(F)(F)F)c1)NC2=O` [Compound 377, 8-{2-[4-(3-hydroxy-azetidine-1-carbonyl)-2-methyl-phenyl]-ethanesulfonyl}-2-(3-trifluoromethyl-phenyl)-1,3,8-triaza-spiro[4.5]dec-1-en-4-one] the “cAMP production activity (%)” value was 64%.

For `Cc1cc(N2C(=O)CNC2=O)ccc1CCS(=O)(=O)N1CCC2(CC1)N=C(C1CCC(CCCC(F)(F)F)CC1)NC2=O` (centres unmarked) [Compound 944, 3-[3-methyl-4-(2-{4-oxo-2-[4-(4,4,4-trifluoro-butyl)-cyclohexyl]-1,3,8-triaza-spiro[4.5]dec-1-ene-8-sulfonyl}-ethyl)-phenyl]-imidazolidine-2,4-dione], the “cAMP production activity (%)” value was 71%.

For `O=C1NC(C2CCC(CCC(F)(F)F)CC2)=NC12CCN(S(=O)(=O)/C=C/c1cccc3c1ccn3C[C@@H](O)CO)CC2` (stereo partly drawn) [Compound 541, 8-{(E)-2-[1-((R)-2,3-dihydroxy-propyl)-1H-indol-4-yl]-ethenesulfonyl}-2-[4-(3,3,3-trifluoro-propyl)-cyclohexyl]-1,3,8-triaza-spiro[4.5]dec-1-en-4-one], the “cAMP production activity (%)” value was 79%.

`CN(C)CCNC(=O)Cc1ccc(CCS(=O)(=O)N2CCC3(CC2)N=C(C2CCCCC2)NC3=O)cc1` [Compound 282, 2-{4-[2-(2-cyclohexyl-4-oxo-1,3,8-triaza-spiro[4.5]dec-1-ene-8-sulfonyl)-ethyl]-phenyl}-N-(2-dimethylamino-ethyl)-acetamide] was tested, and the “cAMP production activity (%)” value was 29%.

`Cc1cc(N2C(=O)NC(COC(C)(C)C)C2=O)cc(C)c1CCS(=O)(=O)N1CCC2(CC1)N=C([C@H]1CC[C@H](C)CC1)NC2=O` (some centres unmarked) [Compound 833, 5-tert-butoxymethyl-3-(3,5-dimethyl-4-{2-[2-(4-methyl-cyclohexyl)-4-oxo-1,3,8-triaza-spiro[4.5]dec-1-ene-8-sulfonyl]-ethyl}-phenyl)-imidazolidine-2,4-dione] was tested, and the “cAMP production activity (%)” value was 34%.

For `CC(=O)Nc1ccc(CCS(=O)(=O)N2CCC3(CC2)N=C(C2CCC(/C=C/CF)CC2)NC3=O)c(C)c1` (centres unmarked) [Compound 1063, N-[4-(2-{2-[4-((E)-3-fluoro-propenyl)-cyclohexyl]-4-oxo-1,3,8-triaza-spiro[4.5]dec-1-ene-8-sulfonyl}-ethyl)-3-methyl-phenyl]-acetamide], the “cAMP production activity (%)” value was 72%.

`CCCCC1CCC(C2=NC3(CCN(S(=O)(=O)CCc4ccc(NC(C)=O)cc4C)CC3)C(=O)N2)CC1` (centres unmarked) [Compound 905, N-(4-{2-[2-(4-butyl-cyclohexyl)-4-oxo-1,3,8-triaza-spiro[4.5]dec-1-ene-8-sulfonyl]-ethyl}-3-methyl-phenyl)-acetamide] was tested, and the “cAMP production activity (%)” value was 75%.

For `Cc1cc(C2=NC3(CCN(S(=O)(=O)CCc4ccc(C(=O)N(C)C)cc4C)CC3)C(=O)N2)ccc1F` [Compound 117, 4-{2-[2-(4-fluoro-3-methyl-phenyl)-4-oxo-1,3,8-triaza-spiro[4.5]dec-1-ene-8-sulfonyl]-ethyl}-3,N,N-trimethyl-benzamide], the “cAMP production activity (%)” value was 61%.

In the case of `COC(=O)Nc1ccc(C)c(/C=C/S(=O)(=O)N2CCC3(CC2)N=C(C2CCCCC2)NC3=O)c1` [Compound 197, {3-[(E)-2-(2-cyclohexyl-4-oxo-1,3,8-triaza-spiro[4.5]dec-1-ene-8-sulfonyl)-vinyl]-4-methyl-phenyl}-carbamic acid methyl ester], the “cAMP production activity (%)” value is reported as 41%.

`Cc1cc(N(C)C(N)=O)cc(C)c1/C=C/[S@TB3](=O)(=O)N1CCC2(CC1)N=C(c1ccc(CCCCCC(F)(F)F)cc1)NC2=O` [Compound 1117, 1-[3,5-dimethyl-4-((E)-2-{4-oxo-2-[4-(6,6,6-trifluoro-hexyl)-phenyl]-1,3,8-triaza-spiro[4.5]dec-1-ene-8-sulfonyl}-vinyl)-phenyl]-1-methyl-urea] was tested, and the “cAMP production activity (%)” value was 88%.

In the case of `Cc1cc(C(=O)N2CCC(C)(O)CC2)cc(C)c1/C=C/S(=O)(=O)N1CCC2(CC1)N=C(c1ccc(C(F)(F)F)c(OCC(F)(F)C(F)F)c1)NC2=O` [Compound 1223, 8-{(E)-2-[4-(4-hydroxy-4-methyl-piperidine-1-carbonyl)-2,6-dimethyl-phenyl]-ethenesulfonyl}-2-[3-(2,2,3,3-tetrafluoro-propoxy)-4-trifluoromethyl-phenyl]-1,3,8-triaza-spiro[4.5]dec-1-en-4-one], the “cAMP production activity (%)” value is reported as 54%.

With `O=C1NC(C2CCCCC2)=NC12CCN(S(=O)(=O)/C=C/c1ccc3c(ccn3CCOCCO)c1)CC2` [Compound 487, 2-cyclohexyl-8-((E)-2-{1-[2-(2-hydroxy-ethoxy)-ethyl]-1H-indol-5-yl}-ethenesulfonyl)-1,3,8-triaza-spiro[4.5]dec-1-en-4-one] the “cAMP production activity (%)” value was 49%.

`CC(=O)Nc1ccc(CCS(=O)(=O)N2CCC3(CC2)N=C([C@H]2CC[C@@H](CC=C(F)F)CC2)NC3=O)c(C)c1` [Compound 1068, N-[4-(2-{2-[4-(3,3-difluoro-allyl)-cyclohexyl]-4-oxo-1,3,8-triaza-spiro[4.5]dec-1-ene-8-sulfonyl}-ethyl)-3-methyl-phenyl]-acetamide] was tested, and the “cAMP production activity (%)” value was 68%.

`Cc1cc(N2C(=O)NC(C)(C)C2=O)cc(C)c1/C=C/S(=O)(=O)N1CCC2(CC1)N=C(C1CCC(C)CC1)NC2=O` (centres unmarked) [Compound 507, 3-(3,5-dimethyl-4-{(E)-2-[2-(4-methyl-cyclohexyl)-4-oxo-1,3,8-triaza-spiro[4.5]dec-1-ene-8-sulfonyl]-vinyl}-phenyl)-5,5-dimethyl-imidazolidine-2,4-dione] was tested, and the “cAMP production activity (%)” value was 43%.

For `Cc1ccccc1CCS(=O)(=O)N1CCC2(CC1)N=C(C1CCCCC1)NC2=O` [Compound 277, 2-cyclohexyl-8-(2-o-tolyl-ethanesulfonyl)-1,3,8-triaza-spiro[4.5]dec-1-en-4-one], the “cAMP production activity (%)” value was 38%.

In the case of `Cc1cc(N(C)C(N)=O)cc(C)c1CCS(=O)(=O)N1CCC2(CC1)N=C([C@H]1CCC[C@@H](CCC(C)C)C1)NC2=O` [Compound 1146, 1-[3,5-dimethyl-4-(2-{2-[(1S,3S)-3-(3-methyl-butyl)-cyclohexyl]-4-oxo-1,3,8-triaza-spiro[4.5]dec-1-ene-8-sulfonyl}-ethyl)-phenyl]-1-methyl-urea], the “cAMP production activity (%)” value is reported as 107%.

For `Cc1cc(C(=O)N2CCC(C)(O)CC2)cc(C)c1/C=C/S(=O)(=O)N1CCC2(CC1)N=C(c1ccc(OCC(F)(F)C(F)F)c(Cl)c1)NC2=O` [Compound 1201, 2-[3-chloro-4-(2,2,3,3-tetrafluoro-propoxy)-phenyl]-8-{(E)-2-[4-(4-hydroxy-4-methyl-piperidine-1-carbonyl)-2,6-dimethyl-phenyl]-ethenesulfonyl}-1,3,8-triaza-spiro[4.5]dec-1-en-4-one], the “cAMP production activity (%)” value was 77%.
